Results reported in patent publication US20210346331A1, “TRPV4 ACTIVITY INHIBITOR” (KAO CORPORATION, priority 2018, published 2021).

Biological target: T1, human TRPV4 (Homo sapiens, UniProt Q9HBA0)
T1 construct: expressed in transfected cells; host or cells: HeLa cells, transient transfection with pcDNA3.1 Directional TOPO vector
Test: Measurement of intracellular calcium ion influx activity in human TRPV4 expressing cells (HeLa, Fluo4) stimulated with TRPV4 agonist GSK1016790a
Type: cell-based
Details: for Intracellular Ca^2+ influx rate (%): GSK + solvent = 100%, human TRPV4 expressing HeLa cells, n = 3, Mean ± S.E.; for calcium ion influx caused by the TRPV4 agonist (result in words): summary of Table 1, Dunnett's test vs GSK1016790a + solvent
Protocol: Polymerase chain reaction (PCR) was performed under the following conditions using a primer set comprising the oligonucleotides represented by the following base sequences which were synthesized with reference to published human TRPV4 gene sequences using a cDNA obtained by reverse-transcribing a totalRNA extracted from the Hutu-80 cell, as a template.
The obtained PCR product was purified using the High Pure PCR Product Purification Kit. The human TRPV4 gene expression vector was produced using the purified PCR product and the pcDNA3.1 Directional TOPO Expression Kit.
The HeLa cell was cultured using the DMEM/F12 medium containing 10% of fetal bovine serum. The HeLa cell was seeded in a T-75 cell culture flask at 5×10^5 cells/Flask. After three days of culture, the human TRPV4 gene expression vector (8 μg) produced in the above (2) was transfected into the cell using the TransIT-HeLaMONSTER Transfection Kit and cultured for 1 day.
The cell was detached using the Detachin and seeded at a density of 1.5×10^4 cells/90 μL/well in the DMEM/F12 medium containing 10% of fetal bovine serum on the 96 well Optical bottom plate and cultured for further 1 day.
Measurement of the intracellular calcium ion influx activity was performed using the Calcium Kit II—fluo 4. After the Loading buffer containing the Fluo4-AM and the Hanks' balanced salt solution were mixed at a ratio of 1:1, 180 μL/well of the mixture was added to the human TRPV4 expressing cell produced in the above (3) and incubated at 37° C. for 1 hour. Thereafter, fluorescence intensity (excitation wavelength: 488 nm, fluorescence wavelength: 524 nm) was measured using a fluorescent plate reader FDSS3000 (Hamamatsu Photonics K.K.) at 37° C. every 2 seconds. The GSK1016790a which is the TRPV4 agonist and each of the 4,3′-di-O-methyl-rosmarinic acid, 3′,4′-di-O-methyl-rosmarinic acid, 4,4′-di-O-methyl-rosmarinic acid, and 3,4-di-O-methyl-rosmarinic acid solution prepared in Production Examples as samples were diluted with the Hanks' balanced salt solution, 20 μL/well of the mixed solution thereof (they were mixed just before the addition) was added to the cell after 30 seconds after the start of the measurement, and the change of the fluorescence intensity was measured every 2 seconds until 300 seconds. The GSK1016790a was added so as to have a final concentration of 3 nM.
As a positive control of the TRPV4 activity inhibition, HC067047, which is the TRPV4 antagonist, was added to the cell in a final concentration of 10 μM.
The TRPV4 activity of the samples was calculated by the following equation, assuming that the influx rate of calcium ions by the treatment of the GSK1016790a, which is the TRPV4 agonist, is 100%.
Influx rate of calcium ions (%)=[(Fmax/F0)−(FmaxC2/F0C2)]/[(FmaxC1/FOC1)−(FmaxC2/F0C2)]×100 (Expression 1)
Fmax: The maximum fluorescence intensity of the well to which the GSK1016790a and a sample were added, at from 0 to 300 seconds after the start of the measurement
FmaxC1: The maximum fluorescence intensity of the well to which the GSK1016790a and a solvent were added, at from 0 to 300 seconds after the start of the measurement
FmaxC2: The maximum fluorescence intensity of the well to which only a solvent was added, at from 0 to 300 seconds after the start of the measurement
F0: The fluorescence intensity of the same well as Fmax, immediately after the start of the measurement
F0C1: The fluorescence intensity of the same well as FmaxC1, immediately after the start of the measurement
F0C2: The fluorescence intensity of the well to which only a solvent was added, immediately after the start of the measurement
The influx rates of calcium ions (n=3 for each group) in the case of adding samples were tested using the Dunnett's test by comparing with the case of adding the GSK1016790a+a solvent. […] The results were presented as the average value (Mean)±standard error (S.E.).

[1] = sample 30 μM + GSK1016790a 3 nM
[2] = sample 100 μM + GSK1016790a 3 nM

T1 sequence (Q9HBA0 whole entry): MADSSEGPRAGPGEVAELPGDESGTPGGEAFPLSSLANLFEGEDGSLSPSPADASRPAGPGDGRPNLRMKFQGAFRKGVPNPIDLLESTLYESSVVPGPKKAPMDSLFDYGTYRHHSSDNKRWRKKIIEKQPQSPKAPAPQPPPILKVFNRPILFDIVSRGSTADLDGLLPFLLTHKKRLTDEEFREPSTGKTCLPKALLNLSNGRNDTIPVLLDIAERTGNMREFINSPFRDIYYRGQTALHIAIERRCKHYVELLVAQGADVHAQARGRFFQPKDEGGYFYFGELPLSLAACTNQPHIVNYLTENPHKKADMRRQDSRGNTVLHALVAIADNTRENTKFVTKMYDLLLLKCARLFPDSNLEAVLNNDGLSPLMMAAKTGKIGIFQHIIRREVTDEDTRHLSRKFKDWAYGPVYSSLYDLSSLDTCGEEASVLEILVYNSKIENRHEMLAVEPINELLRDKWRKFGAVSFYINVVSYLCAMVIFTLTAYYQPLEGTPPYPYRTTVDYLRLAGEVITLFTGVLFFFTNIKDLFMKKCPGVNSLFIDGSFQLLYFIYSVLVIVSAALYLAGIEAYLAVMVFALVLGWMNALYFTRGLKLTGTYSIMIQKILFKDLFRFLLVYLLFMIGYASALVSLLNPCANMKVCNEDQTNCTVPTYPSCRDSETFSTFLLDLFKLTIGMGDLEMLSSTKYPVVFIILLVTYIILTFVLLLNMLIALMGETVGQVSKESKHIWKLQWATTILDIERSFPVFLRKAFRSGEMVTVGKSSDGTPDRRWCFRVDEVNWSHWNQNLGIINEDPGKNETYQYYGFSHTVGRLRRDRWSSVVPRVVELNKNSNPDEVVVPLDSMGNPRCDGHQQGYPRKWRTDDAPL

Row | Structure (SMILES) | Intracellular Ca^2+ influx rate (%) [1] | Intracellular Ca^2+ influx rate (%) [2] | calcium ion influx caused by the TRPV4 agonist (result in words) | Intracellular Ca^2+ influx rate (%) (sample 10 μM + GSK1016790a 3 nM)
1 | COc1ccc(CC(OC(=O)/C=C/c2ccc(O)c(OC)c2)C(=O)O)cc1O (stereo not shown) [4,3′-DiMe-RA, (E)-3-(3-hydroxy-4-methoxyphenyl)-2-{[3-(4-hydroxy-3-methoxyphenyl)acryloyl]oxy}propionic acid] | 85.31 ± 8.14 (P < 0.05) % | 81.02 ± 1.18 (P < 0.01) % | significantly reduced the calcium ion influx | 
2 | COc1ccc(CC(OC(=O)/C=C/c2ccc(O)c(O)c2)C(=O)O)cc1OC (stereo not shown) [3,4-DiMe-RA, (E)-3-(3,4-dimethoxyphenyl)-2-{[3-(3,4-dihydroxyphenyl)acryloyl]oxy}propionic acid] | 80.66 ± 1.58 (P < 0.01) % | 78.99 ± 3.27 (P < 0.01) % | significantly reduced the calcium ion influx | 
3 | COc1ccc(/C=C/C(=O)OC(Cc2ccc(O)c(O)c2)C(=O)O)cc1OC (stereo not shown) [3′,4′-DiMe-RA, (E)-3-(3,4-dihydroxyphenyl)-2-{[3-(3,4-dimethoxyphenyl)acryloyl]oxy}propionic acid] | 78.81 ± 3.67 (P < 0.01) % | 81.74 ± 1.18 (P < 0.01) % | significantly reduced the calcium ion influx | 
4 | COc1ccc(/C=C/C(=O)OC(Cc2ccc(OC)c(O)c2)C(=O)O)cc1O (stereo not shown) [4,4′-DiMe-RA, (E)-3-(3-hydroxy-4-methoxyphenyl)-2-{[3-(3-hydroxy-4-methoxyphenyl)acryloyl]oxy}propionic acid] | 83.19 ± 4.69 (P < 0.05) % | 75.87 ± 3.39 (P < 0.001) % | significantly reduced the calcium ion influx | 
5 | Cc1c(C(=O)Nc2cccc(C(F)(F)F)c2)cc(-c2ccccc2)n1CCCN1CCOCC1 [HC067047, reference compound] |  |  |  | 0.63 ± 0.14 (P < 0.001) %
